ChEMBL document CHEMBL1158838, “Immunosuppressive iridoids from the fruits of Gardenia jasminoides” (J Nat Prod, 2005)
Calls of active or inactive are those of the source. No cut-off for these calls is given here.

What was measured:
T-cell [1] = assay: Immunosuppressive activity against human peripheral blood T cells assessed as inhibition of PMA and anti-CD28 monoclonal antibody-costimulated IL2 secretion at 100 ug/ml by ELISA; assay type: functional, cell-based
T-cell [2] = assay: Immunosuppressive activity against human peripheral blood T cells assessed as inhibition of PMA and anti-CD28 monoclonal antibody-costimulated IL2 secretion at 50 ug/ml by ELISA; assay type: functional, cell-based

Structure (SMILES)	Activity (T-cell [1])	Activity (T-cell [2])
COC(=O)C1=CO[C@@H](O[C@@H]2O[C@H](CO[C@@H]3O[C@H](CO)[C@@H](O)[C@H](O)[C@H]3O)[C@@H](O)[C@H](O)[C@H]2O)[C@@H]2C(CO)=CC[C@H]12	Active	
COC(=O)C1=CO[C@@H](O[C@@H]2O[C@H](CO)[C@@H](O)[C@H](O)[C@H]2O)[C@@H]2C(CO)=CC[C@H]12	Active	Active
C[C@]1(O)C[C@H](O)[C@@H]2C(C=O)=CO[C@@H](O[C@@H]3O[C@H](CO)[C@@H](O)[C@H](O)[C@H]3O)[C@@H]21	Active	Active
COC(=O)C1=CO[C@@H](O[C@@H]2O[C@H](CO)[C@@H](O)[C@H](O)[C@H]2O)[C@@H]2C(CO)=C[C@H](O)[C@H]12	Active	Active
COC(=O)C1=CO[C@@H](O[C@@H]2O[C@H](CO)[C@@H](O)[C@H](O)[C@H]2O)[C@@H]2C(CO)=C[C@@H](O)[C@H]12	Active	
C[C@]1(O)C[C@@H](O)[C@@H]2C(C(=O)O)=CO[C@@H](O[C@@H]3O[C@H](CO)[C@@H](O)[C@H](O)[C@H]3O)[C@@H]21	Active	Active
